Measured values: publication PMC7160673, “A Degenerate Peptide Library Approach to Reveal Sequence Determinants of Methyllysine-Driven Protein Interactions” (Frontiers in Cell and Developmental Biology, 2020)

What was measured:
Type in all cases: binding
[1] = tested on: 53BP1 TTD; assay: Histone peptide microarray, 53BP1 TTD; conditions: 53BP1 TTD hits, average signal per peptide
Description: (§1) Peptide microarrays were fabricated using an Aushon 2470 microarrayer and used as described ([Cornett et al., 2017]) with the following modifications. Protein and antibody hybridization steps were performed in buffer containing 25 mM HEPES pH 7.5, 100 mM NaCl, 0.5% BSA (w/v), and 0.1% NP-40. Slides were washed 3 × 5 min in PBS supplemented with 0.1% Tween-20 between each hybridization step. Antibodies used were primary anti-GST (Sigma #7781, 1:2,000 dilution) and an AlexaFluor 647-labeled secondary antibody (Life Technologies A-21245, 1:5,000 dilution). […] Full lists of peptides queried by array analysis are in Supplementary Table S2.

[2] = tested on: Abcam #ab8895, anti-H3K4me1; assay: Histone peptide microarray, Abcam ab8895; conditions: Abcam ab8895 (anti-H3K4me1) hits, average signal per peptide
Description: as §1

[3] = tested on: Active Motif #39161, anti-H3K9me3; assay: Histone peptide microarray, Active Motif 39161; conditions: Active Motif 39161 (anti-H3K9me3) hits
Description: as §1

[4] = tested on: Millipore #07-449, anti-H3K27me3; assay: Histone peptide microarray, Millipore 07-449; conditions: Millipore 07-449 (anti-H3K27me3) hits, average signal per peptide
Description: as §1

[5] = tested on: CST 9733 (anti-H3K27me3); assay: Histone peptide microarray, CST 9733; conditions: histone peptide array signal normalized to the highest peptide average per subarray, hits; CST 9733 LOT:14 dilution 1:5,000
Description: as §1

Row | Substance | Avg Signal [1] | Avg Signal [2] | Avg Signal [3] | Avg Signal [4] | Avg Signal [5]
1 | ARTKQpTARKSTGGKAPRKQL-K(Biot)-NH2 [Peptide H3.1T6p] | 0.07045 | 0.0003583 | 0.0005946 |  | 
2 | Ac-SGR(Me2a)GK(Ac)QGGKARAKAKTR-Peg-Biot [H2AR3me2aK5ac] | 0.03444 | 0.0107 | 0.03211 |  | 
3 | ARTKQTARK(Ac)STGGKAPRK(Ac)QL-K(Biot)-NH2 [H3.1K9acK18ac] | 0.0364 | 0.2595 | 0.0006444 | 0.006063 | 
4 | AR(Me2a)TK(Ac)QTARK(Ac)STGGK(Ac)APRK(Ac)QL-K(Biot)-NH2 [H3.1R2me2aK4acK9acK14acK18ac] | 0.1712 | 0.0001948 | 0.00047 |  | 
5 | ATKAARKSAPATGGVK(Me3)KPHRYRPG-GK(Biotin)-OH [H3.1K36me3 H3.1(21-44)] |  |  |  |  | 0.0006093
6 | ARTKQTARK(Ac)pSTGGKAPRKQL-K(Biot)-NH2 [Peptide H3.1K9acS10p] | 0.0481 | 0.1852 |  |  | 
7 | ARTKQTARKSTGGK(Ac)APRK(Ac)QL-K(Biot)-NH2 [H3.1K14acK18ac] | 0.1587 | 0.1741 |  |  | 
8 | ARpTK(Me3)QTARKSTGGKAPRKQL-K(Biot)-NH2 [Peptide H3.1T3pK4me3] | 0.0446 |  | 0.008533 | 9.707e-5 | 
9 | Ac-APRKQLATKAAR(Me2a)KSAPSTGG-Peg-Biot [Peptide H3.3R26me2a] |  |  | 0.01154 | 0.001966 | 0.0004634
10 | Ac-SGRGKTGGKARAKAKSR-Peg-Biotin [H2A.X(1-17)] |  |  | 0.0004918 |  | 3.787e-5
11 | Ac-SGRGK(Ac)TGGKARAKAKSR-Peg-Biotin [Peptide H2A.XK5ac] |  |  |  |  | 0.0001351
12 | Ac-SGRGK(Ac)GGKGLGKGGAKRHRKVLR-Peg-Biot [Peptide H4K5ac] | 0.009315 | 0.0009033 | 0.04019 |  | 
13 | Ac-SGRGKGGK(Ac)GLGKGGAK(Ac)RHRKVLR-Peg-Biot [Peptide H4K8acK16ac] | 0.2331 | 0.002102 | 0.003751 |  | 
14 | Ac-APRKQLATKAARK(Me)SAPSTGG--Peg-Biot [Peptide H3.3K27me1] | 0.1127 | 0.01351 |  | 0.003394 | 
15 | ARTKQTARK(Ac)STGGKAPRKQL-K(Biot)-NH2 (not fully specified; K9 acetyl; K(Biot)-NH2) [Peptide H3.1K9ac] | 0.1022 | 0.168 | 0.0003455 |  | 
16 | ARTKQpTARK(Ac)STGGK(Ac)APRK(Ac)QL-K(Biot)-NH2 [H3.1T6pK9acK14acK18ac] | 0.04664 |  | 0.002409 | 0.004763 | 
17 | Ac-GK(Ac)GGAK(Ac)RHRKVLRDNIQ-Peg-Biot [H4K12acK16ac H4(11-27)] |  |  |  |  | 3.787e-5
18 | ARTKQTARK(Me2)pSTGGKAPRKQL-K(Biot)-NH2 [H3.1K9me2S10p] | 0.3509 | 0.1568 |  |  | 
19 | Ac-APRKQLATKAARK(Me3)pSAPSTGG-Peg-Biot [H3.3K27me3S28p] |  |  | 0.0007938 | 0.1105 | 0.1559
20 | PEPAK(Me)SAPAPKKGSKKAVTKAQKK-Peg-Biot [Peptide H2BK5me1] | 0.1012 | 0.004522 | 0.004346 | 0.01581 | 
21 | ARTK(Me3)QTARKST-Peg-Biot [H3.1K4me3 H3.1(1-11)] |  |  |  |  | 1.495e-5
22 | Ac-RRYQKSTELL-Peg-Biot [H3.1.1(52-61)] |  |  | 0.0005198 | 0.0002743 | 3.787e-5
23 | Ac-pSGCitGK(Ac)QGGKARAKAKTR-Peg-Biot [H2AS1pCit3K5ac] | 0.04418 | 0.004421 | 0.0032 | 0.006425 | 

Row | Substance | Avg Signal [1] | Avg Signal [2] | Avg Signal [3] | Avg Signal [4] | Avg Signal [5]
24 | Ac-SGRGKGGKGLGK(Ac)GGAK(Ac)RHRKVLR-Peg-Biot [H4K12acK16ac H4(1-23)] |  |  |  |  | 3.927e-5
25 | KSAPSTGGVK(Me3)KPHRYRPGTV-K(biotin)-NH2 [H3.3K36me3 H3.3(27-46)] |  |  |  |  | 0.00263
26 | ARTK(Ac)QTARK(Ac)STGGKAPRK(Ac)QL-K(Biot)-NH2 [H3.1K4acK9acK18ac] | 0.1542 |  | 0.011 | 0.0004417 | 
27 | (Biot)Peg-MPKDIQLARRIRGERA-OH [H3.1.1(120-135)] | 0.05797 |  | 0.000221 | 0.0002349 | 
28 | ARTKQpTAR(Me2a)K(Me3)STGGKAPRKQL-K(Biot)-NH2 [H3.1T6pR8me2aK9me3] |  |  | 0.6906 | 0.006631 | 0.008944
29 | ARTKQTARK(Me)pSTGGKAPRKQL-K(Biot)-NH2 [H3.1K9me1S10p] | 0.1506 | 0.1234 |  |  | 
30 | ARpTK(Me3)QTARK(Ac)STGGK(Ac)APRK(Ac)QL-K(Biot)-NH2 [H3.1T3pK4me3K9acK14acK18ac] | 0.05883 |  | 0.05484 | 0.007748 | 
31 | ARTK(Ac)QTARKSTGGK(Ac)APRKQL-K(Biot)-NH2 [H3.1K4acK14ac] | 0.2064 | 0.001132 | 0.0007938 |  | 
32 | Ac-GKGGAKRHRK(Me)VLRDNIQ-Peg-Biot [Peptide H4K20me1] | 0.5244 | 0.003452 | 7.157e-5 |  | 
33 | Ac-SGRGK(Ac)GGK(Ac)GLGK(Ac)GGAK(Ac)RHRKVLR-Peg-Biot [H4K5acK8acK12acK16ac] | 0.1158 | 0.005523 |  |  | 
34 | ARTK(Me3)QTARKSTGGKAPRKQL-K(Biot)-NH2 [H3.1K4me3 H3.1(1-20)] |  |  |  |  | 0.001817
35 | Ac-APRKQLATKAARK(Ac)pSAPSTGG-Peg-K(Biot)-NH2 [H3.3K27acS28p] |  |  | 0.002338 | 0.0005992 | 0.0002202
36 | Ac-SGRGK(Ac)GGK(Ac)GLGK(Ac)GGAKRHRKVLR-Peg-Biot [H4K5acK8acK12ac] | 0.2078 |  |  | 0.002971 | 
37 | Ac-SGRGKGGK(Ac)GLGKGGAKRHRKVLR-Peg-Biot [Peptide H4K8ac] | 0.08696 | 0.01217 | 0.001167 |  | 
38 | H3.1.1(15-34) H3.1(15-34): arrayed peptide ID 202 or 2551; same annotation and length |  |  |  |  | 0.0005485
39 | pSGRGK(Ac)QGGK(Ac)ARAK(Ac)AK(Ac)TR-Peg-Biot [H2AS1pK5acK9acK13acK15ac(noN-ac)] | 0.06769 | 0.0006853 |  | 0.001023 | 
40 | Ac-SAAKASQSRSAKAGLT-Peg-Biotin [yH2A(10-25)] |  |  |  |  | 6.218e-5
41 | Ac-GK(Ac)GGAK(Ac)RHRK(Me2)VLRDNIQ-Peg-Biot [H4K12acK16acK20me2] |  |  |  |  | 0.0001487
42 | ARTKQTARKpSTGGKAPRKQL-K(Biot)-NH2 [Peptide H3.1S10p] | 0.0218 | 0.06974 |  | 0.004546 | 
43 | PRRRRRRGSSGAGGRGRTCS-Peg-Biot [Peptide H2A.B] |  |  |  |  | 0
44 | Ac-APRKQLATK(Ac)AARKSAPSTGG-Peg-Biot [Peptide H3.3K23ac] |  |  | 0.006441 |  | 0.0001716
45 | Ac-GK(Ac)GGAK(Ac)RHRK(Me)VLRDNIQ-Peg-Biot [H4K12acK16acK20me1] |  |  | 0.005445 | 0.001642 | 0.0009983
